#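 In this assay, cells in 96-well plates receive the compound at five concentrations for 48 hours. Endpoints are linearly interpolated between the surrounding concentrations. Here, GI50 denotes the concentration required for 50% inhibition of growth. TGI: total growth inhibition.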
# Legend:
# Experiment in all cases: DTP human tumour cell line panel, 48 h
# ACHN renal = system: ACHN renal
# HOP-62 NSCLC = system: HOP-62 NSCLC
# KM12 colon = system: KM12 colon
# HCT-15 colon = system: HCT-15 colon
# 786-0 renal = system: 786-0 renal
# SNB-75 CNS = system: SNB-75 CNS
# SK-MEL-2 melanoma = system: SK-MEL-2 melanoma
# HL-60(TB) leukemia = system: HL-60(TB) leukemia
# MCF7 breast = system: MCF7 breast
# BT-549 breast = system: BT-549 breast
# RPMI-8226 leukemia = system: RPMI-8226 leukemia
# CAKI-1 renal = system: CAKI-1 renal
# A549 NSCLC = system: A549 NSCLC
# IGROV1 ovarian = system: IGROV1 ovarian
# UACC-62 melanoma = system: UACC-62 melanoma
# HCC-2998 colon = system: HCC-2998 colon
# SNB-19 CNS = system: SNB-19 CNS
# UACC-257 melanoma = system: UACC-257 melanoma
# SN12C renal = system: SN12C renal
# SF-295 CNS = system: SF-295 CNS
# DU-145 prostate = system: DU-145 prostate
# MOLT-4 leukemia = system: MOLT-4 leukemia
# U251 CNS = system: U251 CNS
# NCI-H226 lung = system: NCI-H226 lung
# SK-OV-3 ovarian = system: SK-OV-3 ovarian
# NCI-H23 lung = system: NCI-H23 lung
# NCI-H522 lung = system: NCI-H522 lung
# UO-31 renal = system: UO-31 renal
# OVCAR-3 ovarian = system: OVCAR-3 ovarian
# NCI-H460 lung = system: NCI-H460 lung
# OVCAR-5 ovarian = system: OVCAR-5 ovarian
# LOX IMVI melanoma = system: LOX IMVI melanoma
# HOP-92 NSCLC = system: HOP-92 NSCLC
# T-47D breast = system: T-47D breast
# MDA-MB-435 = system: MDA-MB-435
# OVCAR-4 ovarian = system: OVCAR-4 ovarian
# RXF 393 renal = system: RXF 393 renal
# A498 renal = system: A498 renal
# COLO 205 colon = system: COLO 205 colon
# SK-MEL-28 melanoma = system: SK-MEL-28 melanoma
# TK-10 renal = system: TK-10 renal
# PC-3 prostate = system: PC-3 prostate
# EKVX NSCLC = system: EKVX NSCLC
# NCI/ADR-RES ovarian = system: NCI/ADR-RES ovarian
# HCT-116 colon = system: HCT-116 colon
# SW-620 colon = system: SW-620 colon
# OVCAR-8 ovarian = system: OVCAR-8 ovarian
# HS 578T breast = system: HS 578T breast
# MALME-3M melanoma = system: MALME-3M melanoma
# SK-MEL-5 melanoma = system: SK-MEL-5 melanoma
# SF-539 CNS = system: SF-539 CNS
# MDA-MB-231 breast = system: MDA-MB-231 breast
# SF-268 CNS = system: SF-268 CNS
# K-562 leukemia = system: K-562 leukemia
# CCRF-CEM leukemia = system: CCRF-CEM leukemia
# M14 melanoma = system: M14 melanoma
# HT29 colon = system: HT29 colon
# SR leukemia = system: SR leukemia
smiles,measurement,setting,value
COc1cc2c(cc1I)-c1c(cc(OC)c(OC)c1OC)CC[C@@H]2NC(C)=O,GI50,ACHN renal,614 nM
same,TGI,ACHN renal,33800 nM
same,GI50,HOP-62 NSCLC,556 nM
same,TGI,HOP-62 NSCLC,> 33000 nM
same,GI50,KM12 colon,390 nM
same,TGI,KM12 colon,5600 nM
same,GI50,HCT-15 colon,419 nM
same,TGI,HCT-15 colon,16800 nM
same,GI50,786-0 renal,434 nM
same,TGI,786-0 renal,9260 nM
same,GI50,SNB-75 CNS,388 nM
same,TGI,SNB-75 CNS,32600 nM
same,GI50,SK-MEL-2 melanoma,235 nM
same,TGI,SK-MEL-2 melanoma,858 nM
same,GI50,HL-60(TB) leukemia,461 nM
same,GI50,MCF7 breast,370 nM
same,TGI,MCF7 breast,20800 nM
same,GI50,BT-549 breast,691 nM
same,TGI,BT-549 breast,3160 nM
same,GI50,RPMI-8226 leukemia,505 nM
same,TGI,RPMI-8226 leukemia,> 100000 nM
same,GI50,CAKI-1 renal,522 nM
same,TGI,CAKI-1 renal,> 47000 nM
same,GI50,A549 NSCLC,577 nM
same,TGI,A549 NSCLC,> 51900 nM
same,GI50,IGROV1 ovarian,323 nM
same,TGI,IGROV1 ovarian,5430 nM
same,GI50,UACC-62 melanoma,528 nM
same,TGI,UACC-62 melanoma,30300 nM
same,GI50,HCC-2998 colon,664 nM
same,TGI,HCC-2998 colon,6310 nM
same,GI50,SNB-19 CNS,485 nM
same,TGI,SNB-19 CNS,> 41000 nM
same,GI50,UACC-257 melanoma,415 nM
same,TGI,UACC-257 melanoma,60000 nM
same,GI50,SN12C renal,589 nM
same,TGI,SN12C renal,52000 nM
same,GI50,SF-295 CNS,299 nM
same,TGI,SF-295 CNS,3410 nM
same,GI50,DU-145 prostate,317 nM
same,TGI,DU-145 prostate,1030 nM
same,GI50,MOLT-4 leukemia,672 nM
same,TGI,MOLT-4 leukemia,25800 nM
same,GI50,U251 CNS,412 nM
same,TGI,U251 CNS,12200 nM
same,GI50,NCI-H226 lung,1460 nM
same,TGI,NCI-H226 lung,22000 nM
same,GI50,SK-OV-3 ovarian,416 nM
same,TGI,SK-OV-3 ovarian,12600 nM
same,GI50,NCI-H23 lung,413 nM
same,TGI,NCI-H23 lung,5650 nM
same,GI50,NCI-H522 lung,178 nM
same,TGI,NCI-H522 lung,689 nM
same,GI50,UO-31 renal,517 nM
same,TGI,UO-31 renal,> 36800 nM
same,GI50,OVCAR-3 ovarian,232 nM
same,TGI,OVCAR-3 ovarian,572 nM
same,GI50,NCI-H460 lung,374 nM
same,TGI,NCI-H460 lung,3900 nM
same,GI50,OVCAR-5 ovarian,573 nM
same,TGI,OVCAR-5 ovarian,39100 nM
same,GI50,LOX IMVI melanoma,573 nM
same,TGI,LOX IMVI melanoma,18700 nM
same,GI50,HOP-92 NSCLC,987 nM
same,TGI,HOP-92 NSCLC,10700 nM
same,GI50,T-47D breast,366 nM
same,TGI,T-47D breast,> 100000 nM
same,GI50,MDA-MB-435,213 nM
same,TGI,MDA-MB-435,550 nM
same,GI50,OVCAR-4 ovarian,2240 nM
same,TGI,OVCAR-4 ovarian,> 100000 nM
same,GI50,RXF 393 renal,211 nM
same,TGI,RXF 393 renal,569 nM
same,GI50,A498 renal,231 nM
same,TGI,A498 renal,725 nM
same,GI50,COLO 205 colon,314 nM
same,TGI,COLO 205 colon,1360 nM
same,GI50,SK-MEL-28 melanoma,344 nM
same,TGI,SK-MEL-28 melanoma,19100 nM
same,GI50,TK-10 renal,607 nM
same,TGI,TK-10 renal,27300 nM
same,GI50,PC-3 prostate,464 nM
same,TGI,PC-3 prostate,> 42200 nM
same,GI50,EKVX NSCLC,2550 nM
same,TGI,EKVX NSCLC,> 100000 nM
same,GI50,NCI/ADR-RES ovarian,985 nM
same,TGI,NCI/ADR-RES ovarian,6180 nM
same,GI50,HCT-116 colon,384 nM
same,TGI,HCT-116 colon,7140 nM
same,GI50,SW-620 colon,312 nM
same,TGI,SW-620 colon,42200 nM
same,GI50,OVCAR-8 ovarian,526 nM
same,TGI,OVCAR-8 ovarian,14200 nM
same,GI50,HS 578T breast,207 nM
same,TGI,HS 578T breast,593 nM
same,GI50,MALME-3M melanoma,383 nM
same,TGI,MALME-3M melanoma,32000 nM
same,GI50,SK-MEL-5 melanoma,290 nM
same,TGI,SK-MEL-5 melanoma,1100 nM
same,GI50,SF-539 CNS,239 nM
same,TGI,SF-539 CNS,737 nM
same,GI50,MDA-MB-231 breast,834 nM
same,TGI,MDA-MB-231 breast,7210 nM
same,GI50,SF-268 CNS,424 nM
same,TGI,SF-268 CNS,6540 nM
same,GI50,K-562 leukemia,385 nM
same,TGI,K-562 leukemia,17800 nM
same,GI50,CCRF-CEM leukemia,411 nM
same,TGI,CCRF-CEM leukemia,> 100000 nM
same,GI50,M14 melanoma,283 nM
same,TGI,M14 melanoma,2650 nM
same,GI50,HT29 colon,294 nM
same,TGI,HT29 colon,2670 nM
same,GI50,SR leukemia,391 nM
same,TGI,SR leukemia,34600 nM

# Reference: PubChem BioAssay (NCI)
